Data published in patent US4677100A, “Cephalosporin derivatives” (Banyu Pharmaceutical Co., Ltd., priority 1984, dated 1987).
Converted amounts (≈) assume the structure as drawn.

Tests used:
[1] = tested on: P. aeruginosa AK109; assay: MIC, agar plate dilution method; format: cell-based, Pseudomonas aeruginosa; settings: for MIC: Pseudomonas aeruginosa, P. aeruginosa AK109, 10^6 CFU/ml, Sensitivity Disk Agar, read-out: Minimum Inhibitory Concentration; for antibacterial activity relative to the compound of Reference Example: Pseudomonas aeruginosa AK109
Description: (§1) The minimum inhibitory concentrations (MIC: μg/ml) of the compounds of the present invention against various microorganisms were measured by an agar plate dilution method (inoculum size: 10^6 CFU/ml) by using Sensitivity Disk Agar (Nissui) in comparison with Cefotaxime and Ceftazidime as comparative compounds.

[2] = tested on: P. aeruginosa AKR17; assay: MIC, agar plate dilution method; format: cell-based, Pseudomonas aeruginosa; settings: for MIC: Pseudomonas aeruginosa, P. aeruginosa AKR17, 10^6 CFU/ml, Sensitivity Disk Agar, read-out: Minimum Inhibitory Concentration; for antibacterial activity relative to the compound of Reference Example: Pseudomonas aeruginosa AKR-17, resistant to all cephalosporins including Ceftazidime
Description: as §1

[3] = tested on: P. maltophilia IID 1275; assay: MIC, agar plate dilution method; format: cell-based, Pseudomonas maltophilia; settings: for MIC: Stenotrophomonas maltophilia, IID1275, P. maltophilia IID 1275, 10^6 CFU/ml, Sensitivity Disk Agar, read-out: Minimum Inhibitory Concentration
Description: as §1

[4] = tested on: P. cepacia 23; assay: MIC, agar plate dilution method; format: cell-based, Pseudomonas cepacia; settings: for MIC: Burkholderia cepacia, P. cepacia 23, 10^6 CFU/ml, Sensitivity Disk Agar, read-out: Minimum Inhibitory Concentration; for antibacterial activity relative to the compound of Reference Example: Pseudomonas cepacia 23
Description: as §1

[5] = tested on: E. coli CSH2; assay: MIC, agar plate dilution method; format: cell-based; settings: Escherichia coli, 10^6 CFU/ml, Sensitivity Disk Agar, read-out: Minimum Inhibitory Concentration
Description: as §1

[6] = tested on: A. calcoaceticus No. 14; assay: MIC, agar plate dilution method; format: cell-based; settings: Acinetobacter calcoaceticus; for MIC: A. calcoaceticus No. 14, 10^6 CFU/ml, Sensitivity Disk Agar, read-out: Minimum Inhibitory Concentration
Description: as §1

[7] = tested on: P. mirabilis JY10; assay: MIC, agar plate dilution method; format: cell-based; settings: Proteus mirabilis; P. mirabilis JY10; 10^6 CFU/ml; Sensitivity Disk Agar; read-out: Minimum Inhibitory Concentration
Description: as §1

[8] = tested on: E. coli CSH; assay: MIC, agar plate dilution method; format: cell-based; settings: Escherichia coli, read-out: Minimum Inhibitory Concentration
Description: as §1

[9] = tested on: K. pneumoniae No. 42; assay: MIC, agar plate dilution method; format: cell-based; settings: Klebsiella pneumoniae; K. pneumoniae No. 42; 10^6 CFU/ml; Sensitivity Disk Agar; read-out: Minimum Inhibitory Concentration
Description: as §1

[10] = tested on: S. marcescens No. 16-2; assay: MIC, agar plate dilution method; format: cell-based; settings: Serratia marcescens, NO.162; S. marcescens No. 16-2; 10^6 CFU/ml; Sensitivity Disk Agar; read-out: Minimum Inhibitory Concentration
Description: as §1

[11] = tested on: P. vulgaris OB1043; assay: MIC, agar plate dilution method; format: cell-based; settings: Proteus vulgaris; P. vulgaris OB1043; 10^6 CFU/ml; Sensitivity Disk Agar; read-out: Minimum Inhibitory Concentration
Description: as §1

[12] = tested on: C. freundii No. 7; assay: MIC, agar plate dilution method; format: cell-based; settings: Citrobacter freundii; C. freundii No. 7; 10^6 CFU/ml; Sensitivity Disk Agar; read-out: Minimum Inhibitory Concentration
Description: as §1

[13] = tested on: E. coli W3630/Rms212; assay: MIC, agar plate dilution method; format: cell-based; settings: Escherichia coli, W3630/RMS212, read-out: Minimum Inhibitory Concentration
Description: as §1

[14] = tested on: S. aureus JS-1; assay: MIC, agar plate dilution method; format: cell-based; settings: Staphylococcus aureus, JS1; S. aureus JS-1; 10^6 CFU/ml; Sensitivity Disk Agar; read-out: Minimum Inhibitory Concentration
Description: as §1

[15] = tested on: S. aureus NIHJJC-1; assay: MIC, agar plate dilution method; format: cell-based; settings: Staphylococcus aureus, NIHJJC1; S. aureus NIHJJC-1; 10^6 CFU/ml; Sensitivity Disk Agar; read-out: Minimum Inhibitory Concentration
Description: as §1

[16] = tested on: E. cloaceae Nek 39; assay: MIC, agar plate dilution method; format: cell-based; settings: E. cloaceae Nek 39; 10^6 CFU/ml; Sensitivity Disk Agar; read-out: Minimum Inhibitory Concentration
Description: as §1

[17] = tested on: P. vulgaris No. 33; assay: MIC, agar plate dilution method; format: cell-based; settings: Proteus vulgaris; P. vulgaris No. 33; 10^6 CFU/ml; Sensitivity Disk Agar; read-out: Minimum Inhibitory Concentration
Description: as §1

[18] = tested on: E. coli NIHJJC-2; assay: MIC, agar plate dilution method; format: cell-based; settings: Escherichia coli, NIHJJC2; E. coli NIHJJC-2; 10^6 CFU/ml; Sensitivity Disk Agar; read-out: Minimum Inhibitory Concentration
Description: as §1

[19] = tested on: E. coli C/Rms149; assay: MIC, agar plate dilution method; format: cell-based; settings: Escherichia coli, read-out: Minimum Inhibitory Concentration
Description: as §1

[20] = tested on: E. coli ML1410/Rte16; assay: MIC, agar plate dilution method; format: cell-based; settings: Escherichia coli, ML1410/RTE16, read-out: Minimum Inhibitory Concentration
Description: as §1

[21] = tested on: E. coli W3630/Rms213; assay: MIC, agar plate dilution method; format: cell-based; settings: Escherichia coli, W3630/RMS213, read-out: Minimum Inhibitory Concentration
Description: as §1

[22] = tested on: Gram-positive bacteria and Gram-negative bacteria; assay: antibacterial activity, general statement; format: cell-based; settings: sensitive and resistant bacteria
Description: as §1

Compound	MIC [1]	MIC [2]	MIC [3]	MIC [4]	MIC [5]	MIC [6]	MIC [7]	MIC [8]	MIC [9]	MIC [10]	MIC [11]	MIC [12]	MIC [13]	MIC [14]	MIC [15]	MIC [16]	MIC [17]	MIC [18]	MIC [19]	MIC [20]	other results
CO/N=C(\C(=O)NC1C(=O)N2C(C(=O)[O-])=C(C[N+]3(C)Cc4ccc(OC(C)=O)cc4C3)CSC12)c1csc(N)n1 (stereo not drawn) [Ex. 1-F]	3.12 µg/mL (≈ 5.32 µM)	> 25 µg/mL	> 25 µg/mL	6.25 µg/mL (≈ 10.7 µM)	≤ 0.05 µg/mL	25 µg/mL (≈ 42.6 µM)	0.39 µg/mL (≈ 0.665 µM)	0.78 µg/mL (≈ 1.33 µM)	0.2 µg/mL (≈ 0.341 µM)	12.5 µg/mL (≈ 21.3 µM)	0.78 µg/mL (≈ 1.33 µM)	1.56 µg/mL (≈ 2.66 µM)	0.2 µg/mL (≈ 0.341 µM)	6.25 µg/mL (≈ 10.7 µM)	0.39 µg/mL (≈ 0.665 µM)	0.78 µg/mL (≈ 1.33 µM)	0.1 µg/mL (≈ 0.17 µM)	≤ 0.05 µg/mL	0.1 µg/mL (≈ 0.17 µM)	0.1 µg/mL (≈ 0.17 µM)	MIC [21]: 0.78 µg/mL (≈ 1.33 µM)
CO/N=C(\C(=O)NC1C(=O)N2C(C(=O)[O-])=C(C[N+]3(C)Cc4ccc(O)cc4C3)CSC12)c1csc(N)n1 (stereo not drawn) [Ex. 2-D, 7-[(Z)-2-(2-aminothiazol-4-yl)-2-methoxyiminoacetamido]-3-(5-hydroxy-2-methyl-2-isoindolinium)methyl-3-cephem-4-carboxylate]	3.12 µg/mL (≈ 5.73 µM)	> 25 µg/mL	> 25 µg/mL	6.25 µg/mL (≈ 11.5 µM)	≤ 0.05 µg/mL	25 µg/mL (≈ 45.9 µM)	0.39 µg/mL (≈ 0.716 µM)	0.39 µg/mL (≈ 0.716 µM)	0.2 µg/mL (≈ 0.367 µM)	6.25 µg/mL (≈ 11.5 µM)	0.39 µg/mL (≈ 0.716 µM)	1.56 µg/mL (≈ 2.86 µM)	0.2 µg/mL (≈ 0.367 µM)	6.25 µg/mL (≈ 11.5 µM)	0.39 µg/mL (≈ 0.716 µM)	0.78 µg/mL (≈ 1.43 µM)	0.1 µg/mL (≈ 0.184 µM)	≤ 0.05 µg/mL	0.1 µg/mL (≈ 0.184 µM)	0.1 µg/mL (≈ 0.184 µM)	MIC [21]: 0.78 µg/mL (≈ 1.43 µM)
CO/N=C(\C(=O)NC1C(=O)N2C(C(=O)[O-])=C(C[N+]3(C)Cc4cc(OC(C)=O)c(OC(C)=O)cc4C3)CSC12)c1csc(N)n1 (stereo not drawn) [Ex. 3-D]	0.2 µg/mL (≈ 0.31 µM)	0.78 µg/mL (≈ 1.21 µM)	25 µg/mL (≈ 38.8 µM)	0.39 µg/mL (≈ 0.605 µM)	0.2 µg/mL (≈ 0.31 µM)	0.2 µg/mL (≈ 0.31 µM)	0.39 µg/mL (≈ 0.605 µM)	1.56 µg/mL (≈ 2.42 µM)	0.2 µg/mL (≈ 0.31 µM)	6.25 µg/mL (≈ 9.69 µM)	3.12 µg/mL (≈ 4.84 µM)	6.25 µg/mL (≈ 9.69 µM)	≤ 0.05 µg/mL	25 µg/mL (≈ 38.8 µM)	6.25 µg/mL (≈ 9.69 µM)	≤ 0.05 µg/mL	0.2 µg/mL (≈ 0.31 µM)	≤ 0.05 µg/mL	0.1 µg/mL (≈ 0.155 µM)	0.1 µg/mL (≈ 0.155 µM)	antibacterial activity (in words) [22]: particularly strong antibacterial activities; antibacterial activity relative to the compound of Reference Example [1]: at least 16 times; antibacterial activity relative to the compound of Reference Example [2]: at least 32 times; antibacterial activity relative to the compound of Reference Example [4]: at least 32 times; antibacterial activity relative to the compound of Reference Example [6]: at least 32 times; MIC [21]: 0.78 µg/mL (≈ 1.21 µM)
CCON=C(C(=O)NC1C(=O)N2C(C(=O)[O-])=C(C[N+]3(C)Cc4cc(O)c(O)cc4C3)CSC12)c1csc(N)n1 (stereo not drawn) [Ex. 5-D, 7-[(Z)-2-(2-aminothiazol-4-yl)-2-ethoxyiminoacetamido]-3-(5,6-dihydroxy-2-methyl-2-isoindolinium) methyl-3-cephem-4-carboxylate]	0.1 µg/mL (≈ 0.174 µM)	0.39 µg/mL (≈ 0.679 µM)	25 µg/mL (≈ 43.5 µM)	0.1 µg/mL (≈ 0.174 µM)	0.1 µg/mL (≈ 0.174 µM)	0.2 µg/mL (≈ 0.348 µM)	0.2 µg/mL (≈ 0.348 µM)	0.2 µg/mL (≈ 0.348 µM)	0.1 µg/mL (≈ 0.174 µM)	3.12 µg/mL (≈ 5.43 µM)	0.78 µg/mL (≈ 1.36 µM)	6.25 µg/mL (≈ 10.9 µM)	≤ 0.05 µg/mL	12.5 µg/mL (≈ 21.8 µM)	3.12 µg/mL (≈ 5.43 µM)	≤ 0.05 µg/mL	0.2 µg/mL (≈ 0.348 µM)	≤ 0.05 µg/mL	0.1 µg/mL (≈ 0.174 µM)	0.1 µg/mL (≈ 0.174 µM)	antibacterial activity (in words) [22]: particularly strong antibacterial activities; antibacterial activity relative to the compound of Reference Example [1]: at least 16 times; antibacterial activity relative to the compound of Reference Example [2]: at least 32 times; antibacterial activity relative to the compound of Reference Example [4]: at least 32 times; antibacterial activity relative to the compound of Reference Example [6]: at least 32 times; MIC [21]: 0.2 µg/mL (≈ 0.348 µM)
C[N+]1(CC2=C(C(=O)[O-])N3C(=O)C(NC(=O)C(=NOC4(C(=O)O)CCC4)c4csc(N)n4)C3SC2)Cc2cc(O)c(O)cc2C1 (stereo not drawn) [Ex. 11-F, 7-[(Z)-2-(2-aminothiazol-4-yl)-2-(1-carboxy-1-cyclobutoxyimino)acetamido]-3-(5,6-dihydroxy-2-methyl-2-isoindolinium)methyl-3-cephem-4-carboxylate]	≤ 0.05 µg/mL	0.1 µg/mL (≈ 0.155 µM)	1.56 µg/mL (≈ 2.42 µM)	≤ 0.05 µg/mL	≤ 0.05 µg/mL	0.1 µg/mL (≈ 0.155 µM)	≤ 0.05 µg/mL	≤ 0.05 µg/mL	≤ 0.05 µg/mL	0.2 µg/mL (≈ 0.31 µM)	≤ 0.05 µg/mL	0.78 µg/mL (≈ 1.21 µM)	≤ 0.05 µg/mL	> 25 µg/mL	25 µg/mL (≈ 38.8 µM)	≤ 0.05 µg/mL	≤ 0.05 µg/mL	≤ 0.05 µg/mL	≤ 0.05 µg/mL	≤ 0.05 µg/mL	antibacterial activity relative to the compound of Reference Example [1]: at least 16 times; antibacterial activity relative to the compound of Reference Example [2]: at least 32 times; antibacterial activity relative to the compound of Reference Example ([3]; Pseudomonas maltophilia resistant to all cephalosporins): at least twice as strong; antibacterial activity relative to the compound of Reference Example [4]: at least 32 times; antibacterial activity relative to the compound of Reference Example [6]: at least 32 times; MIC [21]: ≤ 0.05 µg/mL
CO/N=C(\C(=O)NC1C(=O)N2C(C(=O)[O-])=C(C[N+]3(C)Cc4ccccc4C3)CSC12)c1csc(N)n1 (stereo not drawn) [Reference Ex., 7-[(Z)-2-(2-aminothiazol-4-yl)-2-methoxyiminoacetamido]-3-(2-methyl-2-isoindolinium)methyl-3-cephem-4-carboxylate, reference compound]	3.12 µg/mL (≈ 5.9 µM)	> 25 µg/mL	> 25 µg/mL	12.5 µg/mL (≈ 23.6 µM)	≤ 0.05 µg/mL	25 µg/mL (≈ 47.3 µM)	0.39 µg/mL (≈ 0.738 µM)	0.39 µg/mL (≈ 0.738 µM)	0.2 µg/mL (≈ 0.378 µM)	12.5 µg/mL (≈ 23.6 µM)	0.78 µg/mL (≈ 1.48 µM)	1.56 µg/mL (≈ 2.95 µM)	0.2 µg/mL (≈ 0.378 µM)	3.12 µg/mL (≈ 5.9 µM)	0.39 µg/mL (≈ 0.738 µM)	0.78 µg/mL (≈ 1.48 µM)	0.2 µg/mL (≈ 0.378 µM)	≤ 0.05 µg/mL	0.1 µg/mL (≈ 0.189 µM)	0.05 µg/mL (≈ 0.0946 µM)	MIC [21]: 0.78 µg/mL (≈ 1.48 µM)
